# Source: patent US12478617B2, “Lipidated peptide inhibitors of interleukin-23 receptor” (JANSSEN BIOTECH, INC., priority 2021, dated 2025)
# pIC50: −log10 of the molar value. Starred links: 1 amine or outer side, 2 acyl side, 3 side chain; linkers in the order of their positions; H or OH if unused. Positions of bridges follow the written chain, without caps; N, C: chain ends. Non-standard residues stand in square brackets, D forms with d. Residues, ends and D or L forms follow the SMILES beside them. Groups on a side chain read outwards from the residue. *: point of attachment. X2 = C[N+](C)(CCNC(=O)COCCOCCNC(=O)COCCOCCNC(=O)CC[C@H](NC(=O)CCCCCCCCCCCCCCCCC(=O)O)C(=O)O)CC(=O)*; Trp(7-Me) = Cc1cccc2c(C[C@H](N)C(=O)O)c[nH]c12; C18 diacid = O=C(O)CCCCCCCCCCCCCCCCC(=O)*; C16 diacid = O=C(O)CCCCCCCCCCCCCCC(=O)*; γGlu = O=C(O)[C@H](CCC(=O)[*:2])N[*:1]; 2Nal = N[C@@H](Cc1ccc2ccccc2c1)C(=O)O; AEF = NCCOc1ccc(C[C@H](N)C(=O)O)cc1; PEG6 = NCCOCCOCCOCCOCCOCCOCCC(=O)O; 3Pal = N[C@@H](Cc1cccnc1)C(=O)O; Pen = CC(C)(S)[C@H](N)C(=O)O; Thp = NC1(C(=O)O)CCOCC1; AEEA = NCCOCCOCC(=O)O; Sar = CNCC(=O)O
# Target: T1, IL-23R (Homo sapiens, UniProt Q5VWK5)
# T1 construct: HEK293 cells containing IL-23R, IL-12RP31 and a firefly luciferase reporter gene driven by a STAT-inducible promoter (Promega); host or cells: HEK293
# T1 sequence (Q5VWK5 24-629): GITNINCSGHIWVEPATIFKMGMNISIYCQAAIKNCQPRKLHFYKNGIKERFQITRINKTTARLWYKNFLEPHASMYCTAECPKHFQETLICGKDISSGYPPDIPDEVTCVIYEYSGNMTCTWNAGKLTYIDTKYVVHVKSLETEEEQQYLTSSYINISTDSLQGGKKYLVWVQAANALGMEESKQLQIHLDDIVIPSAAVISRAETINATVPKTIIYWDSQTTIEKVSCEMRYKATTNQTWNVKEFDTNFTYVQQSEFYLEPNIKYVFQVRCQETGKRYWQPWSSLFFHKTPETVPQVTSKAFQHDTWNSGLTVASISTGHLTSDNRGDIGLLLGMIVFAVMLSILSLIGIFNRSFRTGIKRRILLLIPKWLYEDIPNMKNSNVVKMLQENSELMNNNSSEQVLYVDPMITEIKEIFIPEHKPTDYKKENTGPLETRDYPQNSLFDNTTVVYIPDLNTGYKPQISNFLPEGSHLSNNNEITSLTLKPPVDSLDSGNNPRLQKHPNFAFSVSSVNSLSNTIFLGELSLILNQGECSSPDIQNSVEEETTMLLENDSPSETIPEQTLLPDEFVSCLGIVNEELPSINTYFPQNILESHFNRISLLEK
# Test: IL23R Reporter Assay
# Assay type: cell-based
# Text: IL-23 binding to IL-23 receptors results in the activation of the Signal Transducer and Activator of Transcription 3 (STAT3) by phosphorylation and downstream signaling events. Accordingly. the ability of the inhibitors described herein to block IL-23 action can be assessed by monitoring the status of STAT3 activation in response to IL-23. This may be accomplished in reporter cell assays or in intact cells such as peripheral blood mononuclear cells (PBMCs).
# Compounds were serially diluted in 100% (v/v) DMSO) and plated using an Echo acoustic dispenser (Labcyte) into 1536-well non-treated black assay plates (Corning #9146). […] After 5 h at 37° C., 5% CO2, 95% relative humidity, cells were placed at 20° C. and treated with BioGlo reagent (Promega) according to the Manufacturer's instructions. Luminescence was measured on a Pherastar FSX (BMG LabTech).
row,pIC50,Compound
1,10.08,"CC(=O)NCCCC[C@@H]1NC(=O)[C@H](Cc2c[nH]c3c(C)cccc23)NC(=O)[C@H]([C@@H](C)O)NC(=O)[C@H](CC(N)=O)NC(=O)[C@@H](NC(C)=O)C(C)(C)SSC(C)(C)[C@@H](C(=O)N[C@@H](Cc2ccc(OCCN)cc2)C(=O)N[C@@H](Cc2ccc3ccccc3c2)C(=O)NC2(C(=O)N[C@@H](CCCCNC(=O)C[N+](C)(C)CCNC(=O)COCCOCCNC(=O)COCCOCCNC(=O)CC[C@H](NC(=O)CCCCCCCCCCCCCCCCC(=O)O)C(=O)O)C(=O)N[C@@H](CC(N)=O)C(=O)N[C@@H](Cc3cccnc3)C(=O)N(C)CC(N)=O)CCOCC2)NC1=O [Example 124, MeCO-Pen*-N-T-7MeW-K(Ac)-Pen*-AEF-2Nal-THP-K(SP6 PEG2PEG2gE C18OH)-N-3Pya-Sar-CONH2] (Ac-[Pen]NT[Trp(7-Me)]K(Ac)[Pen][AEF][2Nal][Thp]K(X2)N[3Pal][Sar]-NH2; disulfide 1-6)"
2,9.89,"CC(=O)NCCCC[C@@H]1NC(=O)[C@H](Cc2c[nH]c3c(C)cccc23)NC(=O)[C@H]([C@@H](C)O)NC(=O)[C@H](CCCCNC(=O)CCOCCOCCOCCOCCOCCOCCNC(=O)CC[C@H](NC(=O)CCCCCCCCCCCCCCCCC(=O)O)C(=O)O)NC(=O)[C@@H](NC(=O)[C@@H](CCCNC(=N)N)NC(C)=O)C(C)(C)SSC(C)(C)[C@@H](C(=O)N[C@@H](Cc2ccc(OCCN)cc2)C(=O)N[C@@H](Cc2ccc3ccccc3c2)C(=O)NC2(C(=O)N[C@@H](CCCCNC(C)=O)C(=O)N[C@@H](CC(N)=O)C(=O)N[C@@H](Cc3cccnc3)C(=O)N(C)CC(N)=O)CCOCC2)NC1=O [Example 63, MeCO-r-Pen*-K(PEG6gEC18OH)-T-7MeW-K(Ac)-Pen*-AEF-2Nal-THP-K(Ac)-N-3Pya-Sar-CONH2] (Ac-[dR][Pen]K([PEG6-γGlu-C18 diacid])T[Trp(7-Me)]K(Ac)[Pen][AEF][2Nal][Thp]K(Ac)N[3Pal][Sar]-NH2; disulfide 2-7)"
3,9.72,"CC(=O)NCCCC[C@@H]1NC(=O)[C@H](Cc2c[nH]c3c(C)cccc23)NC(=O)[C@H]([C@@H](C)O)NC(=O)[C@H](CC(N)=O)NC(=O)[C@@H](NC(=O)[C@@H](CCCNC(=N)N)NC(C)=O)C(C)(C)SSC(C)(C)[C@@H](C(=O)N[C@@H](Cc2ccc(OCCN)cc2)C(=O)N[C@@H](Cc2ccc3ccccc3c2)C(=O)NC2(C(=O)N[C@@H](CCCCNC(=O)COCCOCCNC(=O)COCCOCCNC(=O)[C@@H]3CCCN3C(=O)[C@@H]3CCCN3C(=O)[C@@H]3CCCN3C(=O)CCCCCCCCCCCCCCCCC(=O)O)C(=O)N[C@@H](CC(N)=O)C(=O)N[C@@H](Cc3cccnc3)C(=O)N(C)CC(N)=O)CCOCC2)NC1=O [Example 65, MeCO-r-Pen*-N-T-7MeW-K(Ac)-Pen*-AEF-2Nal-THP-K(PEG2PEG2PPPC18OH)-N-3Pya-Sar-CONH2] (Ac-[dR][Pen]NT[Trp(7-Me)]K(Ac)[Pen][AEF][2Nal][Thp]K([AEEA-AEEA-Pro-Pro-Pro-C18 diacid])N[3Pal][Sar]-NH2; disulfide 2-7)"
4,10.43,"CC(=O)NCCCC[C@@H]1NC(=O)[C@H](Cc2c[nH]c3c(C)cccc23)NC(=O)[C@H]([C@@H](C)O)NC(=O)[C@H](CC(N)=O)NC(=O)[C@@H](NC(C)=O)C(C)(C)SSC(C)(C)[C@@H](C(=O)N[C@@H](Cc2ccc(OCCN)cc2)C(=O)N[C@@H](Cc2ccc3ccccc3c2)C(=O)NC2(C(=O)N[C@@H](CCCCNC(=O)COCCOCCNC(=O)COCCOCCNC(=O)CC[C@H](NC(=O)CCCCCCCCCCCCCCC(=O)O)C(=O)O)C(=O)N[C@@H](CC(N)=O)C(=O)N[C@@H](Cc3cccnc3)C(=O)N(C)CC(N)=O)CCOCC2)NC1=O [Example 19, MeCO-Pen*-N-T-7MeW-K(Ac)-Pen*-AEF-2Nal-THP-K(PEG2PEG2gEC16OH)-N-3Pya-Sar-CONH2] (Ac-[Pen]NT[Trp(7-Me)]K(Ac)[Pen][AEF][2Nal][Thp]K([AEEA-AEEA-γGlu-C16 diacid])N[3Pal][Sar]-NH2; disulfide 1-6)"
